Measurements published in patent publication US7192951B2, “Treatment of congestive heart failure” (Astellas Pharma Inc., priority 2000, dated 2007).
Counter-ions that a name gives are not always drawn.

Legend:
[1] = test system: AVP-induced pressor response (V1A antagonism); assay: Antagonism of AVP-induced pressor response in rats, oral; type: in vivo, rat
[2] = test system: female rats (estrous cycle, uterine weights); details: 13-week repeated oral dose, all doses
human subjects = assay: Safety in Phase 1 subjects; type: in vivo
Excerpt: Other adverse events included flushes, a sensation of cold extremities, abdominal complaints, abnormal stools, syncope, dizziness, palpitations, and postural hypotension. […] These observations were considered related to antagonism of V2 receptors and not a safety concern. Vital signs (blood pressure and heart rate) were unaffected by YM087.

rats [3] = details: rat, in vivo, 2.5 mg/kg
[4] = test system: aquaretic action (V2-receptor antagonism); assay: Aquaretic action in normal subjects (Phase 1); type: in vivo, human
[5] = test system: AVP-induced dermal vasoconstriction; assay: AVP-induced dermal vasoconstriction in Phase 1 subjects; type: in vivo, human; details: 50 mg IV
rabbits = assay: Teratogenicity in rabbits; type: in vivo, rabbit
[6] = test system: heart failure induced by rapid right ventricular pacing; assay: Dogs with heart failure induced by rapid right ventricular pacing; type: in vivo, dog; details: intravenous 0.1 mg/kg
bacteria = assay: Mutagenicity in bacteria; type: cell-based
bone marrow of rats = assay: Clastogenicity in bone marrow of rats; type: in vivo, rat
[7] = Oral pharmacokinetics in rats; type: in vivo; details: rat
Excerpt: (§1) There is a marked food effect with absorption reduced by >50% in dogs after a meal.

rats (fertility) = assay: Reproductive performance and female fertility study in rats; type: in vivo, rat
[8] = Oral pharmacokinetics in dogs; type: in vivo; details: dog
Excerpt: as §1

[9] = Human pharmacokinetics (Phase 1)
dogs = details: dog, in vivo, 2 mg/kg
rats [10] = assay: Teratogenicity in rats; type: in vivo, rat
[11] = test system: AVP-induced platelet aggregation (V1A antagonist activity); assay: AVP-induced platelet aggregation in Phase 1 subjects; type: in vivo, human; details: 20 mg/day orally or 2.5 mg IV
human lymphocytes = assay: Clastogenicity in human lymphocytes in vitro; type: cell-based
[12] = test system: AVP-induced pressor response (V1A antagonism); assay: Antagonism of AVP-induced pressor response in dogs, intravenous; type: in vivo, dog
[13] = test system: urinary output (V2 antagonism); assay: Urinary output and osmolality in conscious dogs, oral; type: in vivo, dog
bone marrow = assay: 2- and 13-week oral toxicity studies in dogs; type: in vivo, dog

For `Cc1nc2c([nH]1)-c1ccccc1N(C(=O)c1ccc(NC(=O)c3ccccc3-c3ccccc3)cc1)CC2` [YM087, N-[4-(2-methyl-4,5,6-tetrahydromidazo[4,5-d][1]benzazepin-6-ylcarbonyl)phenyl]biphenyl-2-carboxamide hydrochloride], the “ID50 (dose that reduced the AVP response by 50%)” value [1] was 0.32 mg/kg, the uterine weights [2] was “decreased at all doses” and the “biochemical or hematological laboratory parameters” value (human subjects; Phase 1 subjects) was “No drug-related trend was observed”. The “vital signs (blood pressure and heart rate)” value (human subjects; Phase 1 subjects) was “unaffected”, the overall safety (human subjects; approximately 250 subjects treated) was “no major safety concerns were identified” and the “urinary and plasma osmolarity” value (human subjects; at higher doses, considered related to V2 antagonism) was “urinary osmolarity decreased and plasma osmolarity increased with or without an increase in plasma sodium”. For the same molecule, the serious adverse event (human subjects; one patient with severe CHF, 80 mg/day for 4 days, relation to study drug could not be excluded) was “generalized tonic clonic seizure”, the “most frequent adverse events” value (human subjects; regardless of treatment association) was “mild or moderate thirst and mild headache” and the “white blood cell counts” value (human subjects; three subjects who received YM087 (one on placebo)) was “minor, reversible decreases in white blood cell counts”. For the same molecule, the “toxicity in 4-week IV study” value (rats [3]) was “No toxicity was observed”, the “duration of increased urine production rate postdosing” value ([4]; IV 50 mg/day) was at most 6 h and the “duration of increased urine production rate postdosing” value ([4]; IV doses up to 250 μg/kg) was “up to 3 hours”. The “tolerability of aquaretic effects” value ([4]; normal subjects, 120 mg QD or 60 mg BID orally or 50 mg IV) was “considered too uncomfortable in normal subjects to be tolerable”, the “dose at which aquaretic action with decrease in urine osmolarity starts” value ([4]; normal subjects, IV) was 0.05 mg/kg and the “dose at which aquaretic action with decrease in urine osmolarity starts” value ([4]; normal subjects, oral) was 15 mg. The AVP-induced dermal vasoconstriction [5] was “Total inhibition”, the teratogenicity (rabbits) was “not teratogenic” and the cardiac function [6] was “significantly improved the depressed cardiac function”. For the same molecule, the diuresis [6] was “produced a water diuresis”, the mutagenicity (bacteria) was “not mutagenic” and the clastogenicity (bone marrow of rats) was “not clastogenic”. The “time to peak concentrations” value [7] was 0.5 h, the female fertility (rats (fertility); female rats, 100 mg/kg orally for 2 weeks prior to mating with untreated males) was “reduced fertility index, increased implantation loss, and decreased live fetuses” and the “reproductive performance of male rats” value (rats (fertility); male rats) was “did not affect”. For the same molecule, the “time to peak concentrations” value [8] was 1 h, the “plasma levels after repeated BID oral doses” value ([9]; 60 mg BID oral, after the second dose) was “unexpectedly high plasma levels after the second dose” and the half-life ([9]; plasma) was 4 to 5 h. It also gave a bioavailability ([9]; plasma, oral) of 43 to 59%, a Tmax ([9]; plasma, po) of about 1 h and a bioavailability ([9]; plasma, po, 60 mg) of 44%. The “toxicity in 4-week IV study” value (dogs) was “No toxicity was observed”, the teratogenicity (rats [10]) was “not teratogenic” and the AVP-induced platelet aggregation [11] was “Inhibition of AVP-induced platelet aggregation”. The clastogenicity (human lymphocytes) was “not clastogenic”, the “ID50 (dose that reduced the AVP response by 50%)” value [12] was 0.026 mg/kg and the urinary output ([13]; conscious dogs, oral 0.03 to 0.3 mg/kg, dose-related) was “increased urinary output”. For the same molecule, the urinary osmolality ([13]; conscious dogs, oral 0.03 to 0.3 mg/kg, reduced from 1500, dose-related) was under 100 mOsm/kg H2O, the “effect on urinary sodium (Na) or potassium (K) excretion” value ([13]; unlike furosemide, species not given) was “little or no effect” and the peripheral blood counts (bone marrow; affected dogs, 13-week oral study) was “Decreased peripheral erythrocyte, leukocyte, and/or platelet counts”. For the same molecule, the “reversibility of bone marrow and peripheral blood changes” value (bone marrow; dogs) was “reversible”.
